This note sets out measurements from ChEMBL document CHEMBL3124783, “Study of the structural and dynamic effects in the FimH adhesin upon α-d-heptyl mannose binding” (J Med Chem, 2014).

Active and inactive are the calls of the source. The calls are words filed in the database; no cut-off is given here.

Assay [1] concerns the target Type 1 fimbrin D-mannose specific adhesin (Escherichia coli K-12) (UniProt P08191). As to the kind of experiment: Binding affinity to Escherichia coli J96 FimH lectin domain expressed in Escherichia coli C43 (DE3) by NMR analysis.
Assay [2] has as its target Type 1 fimbrin D-mannose specific adhesin (Escherichia coli K-12, UniProt P08191). As to the kind of experiment: Binding affinity to Escherichia coli J96 wild type FimH lectin domain expressed in Escherichia coli C43 (DE3) by direct ITC analysis. A general note: In ITC the heat of successive injections is recorded.
A short description of assay [3]: Binding affinity to Escherichia coli J96 FimH lectin domain Y48A mutant expressed in Escherichia coli C43 (DE3) by direct ITC analysis.
The test system of assay [4] is Escherichia coli J96. As to the kind of experiment: Selectivity ratio of Kd for Escherichia coli J96 FimH lectin domain Y48A mutant to Kd for Escherichia coli J96 wild type FimH lectin domain.
Assay [5] deals with Type 1 fimbrin D-mannose specific adhesin (Escherichia coli K-12) (UniProt P08191). As to the kind of experiment: Binding affinity to Escherichia coli J96 FimH lectin domain expressed in Escherichia coli C43 (DE3) by SAXS analysis.
Assay [6] is described as follows: Binding affinity to Escherichia coli FimH lectin domain.

Type 1 fimbrin D-mannose specific adhesin (Escherichia coli K-12), sequence (P08191 whole entry, the tested form may be a part): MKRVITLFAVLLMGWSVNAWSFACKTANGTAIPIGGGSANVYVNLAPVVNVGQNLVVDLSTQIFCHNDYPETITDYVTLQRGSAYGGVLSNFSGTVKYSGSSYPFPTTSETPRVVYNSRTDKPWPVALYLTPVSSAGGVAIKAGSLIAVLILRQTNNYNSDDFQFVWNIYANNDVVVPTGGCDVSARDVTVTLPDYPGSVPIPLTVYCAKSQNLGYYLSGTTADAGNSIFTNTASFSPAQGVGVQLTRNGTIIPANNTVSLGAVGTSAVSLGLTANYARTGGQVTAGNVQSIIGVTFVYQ
Type 1 fimbrin D-mannose specific adhesin, sequence (P08191 whole entry, the tested form may be a part): as above

For orientation: Kd means a measure of binding affinity in units of concentration. Higher therefore signals weaker binding. `CCCCCCCO[C@H]1O[C@H](CO)[C@@H](O)[C@H](O)[C@@H]1O`: the result in assay [1] and in assay [5] was Active. Moreover, the results for the Kd in assay [2], in assay [3] and in assay [6] were 17.1 nM, 94.3 nM and 7 nM, respectively. For the same compound, in assay [4], the Selectivity ratio was determined as 5.
